According to patent US5589373A, “Thermostable alkaline metalloprotease produced by a hyphomonas and preparation thereof” (priority 1995, dated 1996):
“Also recorded” adds a separate entry of the source. Like-named read-outs stand apart in the source and are kept apart here.

Assays:
[1] = tested on: H. jannaschiana stationary phase cells; assay: Repression of exoprotease synthesis in stationary phase cells in growth media (azocasein assay); format: cell-based, Hyphomonas jannaschiana VP3; details: for activity / activity at 100000 µM: Hyphomonas jannaschiana, read-out: Enzyme activity (%) in growth media
Method: (§1) Samples of the cell culture supernatants, the toluenized cells, and the cell lysates were each tested for protease activity using an azocasein assay, such as described by Long et al., J. Gen. Microbiol. 127:193-199 (1981). One unit of enzyme activity was considered equivalent to an increased absorbance of 0.1 units at a wavelength of 440 nm after a 30 minute incubation at 42° C.
The stationary phase cells were resuspended in a one-tenth volume of MB, then incubated for 30 minutes at 37° C. Exoprotease activity was determined at hourly intervals following introduction of single amino acids at a final concentrations of 0.1% (v/v) o The assay was conducted over a period of 3 hours.
In a similar manner, protease activity was determined following the introduction of 100 mM (NH4)2 SO4 (ammonium sulfate) or 1% casamino acids to the growth medium.

[2] = tested on: H. jannaschiana extracellular protease; assay: Effect of amino acids, casamino acids or (NH4)2SO4 on cell-free protease suspension (azocasein assay); format: biochemical, Hyphomonas jannaschiana VP3; parameters: Enzyme activity (%) in cell free supernatant: concentration or dose not given beside the values; details: for Enzyme activity (%) in cell free supernatant: cell-free protease suspension, 10 minute incubation, same additions, control = 100
Method: as §1
In the alternative, after allowing protease synthesis and export to proceed for 2.5 hours, the cells were removed by centrifugation, and the supernatant was passed through a 0.22 μm filter. The cell-free protease suspension was then treated, as described above, with single amino acids, casamino acids, or (NH4)2 SO4. Then, enzyme activity was determined following a 10 minute incubation period.

[3] = tested on: H. jannaschiana exoprotease; assay: Recovery of chemically inhibited protease activity by Zn2+ and Ca2+; format: biochemical, Hyphomonas jannaschiana VP3; details: for restoration of activity to EDTA-inactivated enzyme: 100 mM EDTA, ZnCl2 or CaCl2, 25° C.; for effect of additional ions on activity of the native protease: no inhibitor
Method: The ability of the divalent cations Zn^2+ and Ca^2+ to restore enzyme activity to inactivated exoprotease was examined by introducing either 5 mM ZnCl2 or 100 mM CaCl2 at a 1:1 molar ratio of ion to inhibitor to the preparations described in Example 4. Following incubation at 25° C. for 15 minutes, protease activity was assayed.

[4] = tested on: H. jannaschiana exoprotease; assay: Chemical inhibition of protease activity in filtered culture supernatant; format: biochemical, Hyphomonas jannaschiana VP3; details: for exoprotease activity in additional assays, data not shown (in words): concentration not given; for protease activity after exposure to inhibitor (in words): 5 mM o-phenanthroline, 60 mM PMSF, 100 mM EDTA, 80 mM EGTA
Method: as §1
The effect of various protease inhibitors on the production of H. jannaschiana exoprotease was tested by measuring protease activity following the incubation of the cells with each inhibitor. Stationary phase cells, grown in MB, were pelleted and resuspended in fresh media at one-tenth of the original culture volume. The cell suspension was incubated at 37° C. for 2.5 hours to permit synthesis and export of exoprotease into the culture supernatant. Then the cells were removed by centrifugation and the supernatant was sterilized by filtration through a 0.22 μm filter.
Protease activity was measured after exposure to each inhibitor at 25° C. for 15 minutes. The inhibitors were added at the following final concentrations: 5 mM o-phenanthroline, 60 mM […] (PMSF), 10 mM and 25 mM p-chloromercuribenzoic acid (pCMB), 100 mM EDTA, 80 mM ethylene glycol bis(beta-amino-ethylether)N,N,N',N'-tetraacetic acid (EGTA).
Each bar represents treatment of the exoprotease with the following: 1=untreated exoprotease; 2=o-phenan-throline; 3=o-phenanthroline and ZnCl; 4=ZnCl; 5=EGTA; 6=EGTA and CaCl; 7=CaCl; 8=EDTA; 9=EDTA and ZnCl; 10=EDTA and CaCl; 11=pCMB (10 mM, final conc.); 12=pCMB (25 mM, final conc.); and 13=PMSF. The enzyme activity was expressed as a percentage of the activity measured in the untreated control.

[5] = tested on: H. jannaschiana stationary phase cells; assay: Inhibition of protease export by quinacrine in non-proliferating stationary phase cells; format: cell-based; details: Hyphomonas jannaschiana; for activity at 25 µM: 0.025 mM quinacrine, read-out: Enzyme activity relative to untreated control
Method: (§2) Thus, protease export was examined in the presence of quinacrine, a signal peptidase inhibitor. Protease export in the presence of quinacrine was examined using two approaches. An actively growing culture of H. jannaschiana was monitored with respect to both optical density at 550 nm and extracellular enzyme activity in the presence of 0.025 mM quinacrine. In order to eliminate the effect of quinacrine on H. jannaschiana growth, cells were initially propagated to stationary phase, and subsequently maintained in the non-proliferating state by 10-fold concentration in fresh media which was supplemented with 0.025 mM quinacrine.

[6] = tested on: actively growing culture of H. jannaschiana; assay: Quinacrine on an actively growing culture (optical density and extracellular enzyme activity); format: cell-based, Hyphomonas jannaschiana; details: 0.025 mM quinacrine
Method: as §2

[7] = tested on: functional extracellular protease; assay: Quinacrine on functional extracellular protease activity; format: biochemical, Hyphomonas jannaschiana
[8] = Thermal stability of H. jannaschiana exoprotease (azocasein assay); format: physicochemical, Hyphomonas jannaschiana; details: for enzyme activity remaining after incubation at 75° C. for 30 minutes: filtered stationary phase culture supernatant, pH 9
Method: Filtered supernatant containing Hyphomonas jannaschiana exoprotease was maintained at 75° C. and 100° C. for various periods of time. Then, the enzyme was allowed to recalibrate to 25° C., and subsequently assayed for protease activity using the azocasein assay.

[9] = Properties of the purified thermostable alkaline metalloprotease (pH and temperature optimum, pH stability, pI); parameters: species or system Hyphomonas jannaschiana
[10] = stationary phase cells in one-tenth volume MB, 37° C., single amino acids 0.1% (v/v), 100 mM (NH4)2SO4 or 1% casamino acids, control = 100
[11] = stationary phase cells in one-tenth volume MB, 37° C., single amino acids 0.1% (v/v), control = 100
[12] = listed as alkaline exoprotease produced by H. jannaschiana

N.N.O=S(=O)(O)O [(NH4)2 SO4, ammonium sulfate]
reduction in the synthesis of the exoprotease ([1]; 100 mM (NH4)2SO4): approximately 50%
Enzyme activity (%) in growth media [1, 10]: 56%
Enzyme activity (%) in cell free supernatant [2]: 100%
extracellular enzyme activity in cell-free growth media (in words) ([2]; exposed to the added substance): no affect

[Ca+2].[Cl-].[Cl-] [Ca^2+, CaCl2]
restoration of activity to EGTA-inhibited exoprotease ([3]; 80 mM EGTA, CaCl2 at 1:1 ion to inhibitor, 25° C., 15 minutes): reversible; also recorded: restored
restoration of activity to EDTA-inactivated enzyme ([3]; 15 minutes): partially restored
effect of additional ions on activity of the native protease [3]: no detectable effect

CC(C)CC(NC(=O)C1OC1C(=O)O)C(=O)NCCCCNC(=N)N (centres unmarked) [E64]
exoprotease activity in additional assays, data not shown (in words) [4]: not affected

O=C(O)CN(CCN(CC(=O)O)CC(=O)O)CC(=O)O [EDTA, ethylenediaminetetra-acetic acid]
EDTA concentration necessary to inhibit enzyme activity [4]: greater than 10^-2 M
protease activity after exposure to inhibitor (in words) ([4]; 25° C., 15 minutes): inhibited

O=C(O)CN(CCOCCOCCN(CC(=O)O)CC(=O)O)CC(=O)O [EGTA, ethylene glycol bis(beta-amino-ethylether)N,N,N',N'-tetraacetic acid]
protease activity after exposure to inhibitor (in words) ([4]; 25° C., 15 minutes): totally inhibited

O=S(=O)(F)Cc1ccccc1 [PMSF, phenylmethyl sulfonamide fluoride]
protease activity after exposure to inhibitor (in words) ([4]; 25° C., 15 minutes): unaffected; also recorded: not affected

[Cl-].[Cl-].[Zn+2] [Zn^2+, ZnCl2]
restoration of activity to o-phenanthroline-inhibited exoprotease ([3]; 5 mM o-phenanthroline, 5 mM ZnCl2, 1:1 ion to inhibitor, 25° C., 15 minutes): reactivated; also recorded: restored
restoration of activity to EDTA-inactivated enzyme ([3]; 15 minutes): partially restored
effect of additional ions on activity of the native protease [3]: significantly increased

C[C@H](N)C(=O)O [alanine]
Enzyme activity (%) in cell free supernatant [2]: 56%

N[C@@H](CC(=O)O)C(=O)O [aspartic acid]
activity [1, 11]: 79%
Enzyme activity (%) in cell free supernatant [2]: 60%

N[C@@H](CCC(=O)O)C(=O)O [glutamic acid]
activity at 100000 µM [1]: 86%
Enzyme activity (%) in cell free supernatant [2]: 52%

NC(=O)CC[C@H](N)C(=O)O [glutamine]
Enzyme activity (%) in cell free supernatant [2]: 52%

NCC(=O)O [glycine]
activity at 100000 µM [1, 10]: 69%
Enzyme activity (%) in cell free supernatant [2]: 82%

N[C@@H](Cc1c[nH]cn1)C(=O)O [histidine]
activity [1, 11]: 87%
Enzyme activity (%) in cell free supernatant [2]: 83%

CC(C)C[C@H](N)C(=O)O [leucine]
Enzyme activity (%) in cell free supernatant [2]: 69%

OCCS [mercaptoethanol]
exoprotease activity in additional assays, data not shown (in words) [4]: abolished

c1cnc2c(c1)ccc1cccnc12 [o-phenanthroline]
protease activity after exposure to inhibitor (in words) ([4]; 25° C., 15 minutes): totally inhibited

O=C(O)c1cc[c]([Hg][Cl])cc1 [pCMB, p-chloromercuribenzoic acid]
protease activity after exposure to low concentration of pCMB (in words) ([4]; 10 mM pCMB, 25° C., 15 minutes): unaffected; also recorded: not affected
protease activity after exposure to high concentration of pCMB (in words) ([4]; 25 mM pCMB, 25° C., 15 minutes): reduced

O=C(O)[C@@H]1CCCN1 [proline]
activity at 100000 µM [1, 10]: 108%
Enzyme activity (%) in cell free supernatant [2]: 93%

CCN(CC)CCCC(C)Nc1c2ccc(Cl)cc2nc2ccc(OC)cc12 (centres unmarked) [quinacrine]
activity at 25 µM ([5]; 0.5 h, time 30 min): 100%
activity at 25 µM ([5]; 40 min, time 40 min): 33%
inhibition at 25 µM ([5]; 40 min, 40 minutes after the addition of quinacrine, read-out: reduction in exported enzyme): 67%
activity at 25 µM ([5]; 1 h, time 60 min): 50%
activity at 25 µM ([5]; 1.5 h, time 90 min): 78%
activity at 25 µM ([5]; 2 h, time 120 min): 82%
activity at 25 µM ([5]; 3 h, time 180 min): 90%
cell density and exoprotease activity after an additional 6 hour growth period (in words) [6]: returned to normal levels
inhibition of growth at 25 µM ([6]; Hyphomonas jannaschiana, 7 h, seven hours after treatment, OD 550 nm, read-out: reduction of optical density of the culture vs untreated cells): 48%
inhibition at 25 µM ([6]; Hyphomonas jannaschiana, 7 h, seven hours after treatment, read-out: exoprotease activity diminished vs untreated cells): 73%
effect on functional extracellular protease activity (in words) [7]: no affect

N[C@@H](CO)C(=O)O [serine]
activity [1, 11]: 79%
Enzyme activity (%) in cell free supernatant [2]: 64%

N[C@@H](Cc1c[nH]c2ccccc12)C(=O)O [tryptophan]
Enzyme activity (%) in cell free supernatant [2]: 56%

B1: H. jannaschiana exoprotease: extracellular thermostable alkaline metalloprotease, approximately 80,000 daltons, produced by Hyphomonas jannaschiana VP3 (protein)
chain: EICRIVMDGHCEKQGDAECHDDQQSARPADQRINQDVEQVDDQFEEQGPGRNVCGINVFGS
activity remaining after boiling at 100° C. for 5 minutes [8]: at least 41%
decrease of exoprotease activity after incubation at 75° C. for 30 minutes ([8]; azocasein assay): about 40%
reduction of extracellular protease activity after 100° C. (boiling) for 5 minutes ([8]; filtered culture supernatant): 41%
enzyme activity remaining after incubation at 75° C. for 30 minutes [8]: at least 60%
enzyme activity remaining after incubation at 75° C. for 30 minutes [8, 12]: Over 60%
proteolytic activity after boiling for 5 minutes (in words) [8, 12]: failed to destroy
proteolytic activity after boiling for 5 minutes (in words) ([8]; listed as thermostable alkaline exoprotease): did not destroy
isoelectric point pI [9]: 4.8
optimal temperature ([9]; reacted at pH 9): 45 °C
optimal pH ([9]; reaction temperature of about 60° to 65° C.): approximately 9.5
